Like-named read-outs stand apart in the source and are kept apart here.
Columns and labels:
[1] = biological target: T1, human β3 adrenergic receptor (Homo sapiens, UniProt P13945); assay: Functional assay: cAMP production in CHO cells transfected with cloned β-adrenergic receptor; assay type: cell-based
T1 construct: expressed in transfected cells; host or cells: Chinese hamster ovary (CHO) cells, stably transfected
Method: Biological Assays for β3 Functional Activities: The following in vitro assays are suitable for screening compounds that have selective β3 agonist activity:
Functional Assay: cAMP production in response to ligand is measured according to Barton, et al. (1991, Agonist-induced desensitization of D2 dopamine receptors in human Y-79 retinoblastoma cells. Mol. Pharmacol. […]) modified as follows. cAMP production is measured using a homogenous time-resolved fluorescence resonance energy transfer immunoassay (LANCE™, Perkin Elmer) according to the manufacture's instructions. Chinese hamster ovary (CHO) cells, stably transfected with the cloned 13-adrenergic receptor (β1, β2 or β3) are harvested after 3 days of subculturing. Harvesting of cells is done with Enzyme-free Dissociation Media (Specialty Media). Cells are then counted and resuspended in assay buffer (Hank's Balanced salt solution supplemented with 5 mM HEPES, 0.1% BSA) containing a phosphodiesterase inhibitor (IBMX, 0.6 mM). The reaction is initiated by mixing 6,000 cells in 6 with 6 μL Alexa Fluor labeled cAMP antibody (LANCE™ kit) which is then added to an assay well containing 12 μL of compound (diluted in assay buffer to 2× final concentration). The reaction proceeds for 30 min at room temperature and is terminated by the addition of 24 detection buffer (LANCE™ kit). The assay plate is then incubated for 1 h at room temperature and time-resolved fluorescence measured on a Perkin Elmer Envision reader or equivalent. The unknown cAMP level is determined by comparing fluorescence levels to a cAMP standard curve.
The non-selective, full agonist 13-adrenergic ligand isoproterenol is used at all three receptors to determine maximal stimulation. The human β3 adrenergic receptor (AR) selective ligand (S)-N-[4-[2-[[2-hydroxy-3-(4-hydroxyphenoxy)propyl]amino]ethyl]-phenyl]-4-iodobenzenesulfonamide is used as a control in all assays. […] Data are analyzed using Microsoft Excel and Graphpad Prism or an internally developed data analysis software package.

[2] = tested on: EFS-induced isolated detrusor muscle contractions; assay: EFS-induced contraction of isolated rat detrusor muscle strips, with isobologram analysis; parameters: species or system Sprague-Dawley rats
Method: Male adult Sprague-Dawley rats were used. After euthanizing using CO2 gas, a whole bladder was removed. Longitudinal strips (about 6 mm×3 mm) of the extratrigonal portion of the detrusor muscle were prepared. […] The strips were tied at one end to the organ bath, and connected at the other end to an isometric transducer (AD Instruments) under a resting tension of 10 mN. The responses of the preparations were recorded at a sampling rate of 10 Hz by a multiple channel data acquisition system (PowerLab, AD Instruments), and measured with an analysis software (Chart, AD Instruments). After the equilibration period for at least 60 min, each tissue strip was challenged to electrical field stimulation (EFS) at 60 Hz; duration, 0.3 ms; 3 sec; 90 V to induce contractions. Upon obtaining stable contractions with EFS, compound solution (25 μL) was applied into organ bath in a cumulative manner. After 15 min of each compound treatment, EFS was applied.
Isobologram Analysis was used to evaluate the synergic effect of a combination therapy. Isobologram Analysis provides a visual assessment of the interaction of two different agents using independent statistical analysis. The statistical analysis can be accomplished from calculations of certain potency indices from single treatment of each compound and fixed-ratio combinations for the same effect.
Isobologram for some particular effect (e.g., 50% of the maximum) in which the dose of active agent A alone is A=20 and active agent B alone is B=100. The straight line connecting these intercept points (additivity line) is the locus of all dose pairs that, based on these potencies, should give the same effect, An actual dose pair such as point Q attains this effect with lesser quantities and is synergistic (or super-additive), while the dose pair denoted by point R means greater quantities are required and is therefore sub-additive.

bladder capacity = assay: Bladder capacity (cystometry) in anesthetized rhesus monkeys; assay type: in vivo, rhesus monkeys (Macaca mulatta); conditions: mean of 4-6 animals
Text: Adult female rhesus monkeys (Macaca mulatta) weighed 5.3-6.2 kg (4-7 year-old) were used. The subjects were either paired or individually housed on a 12-h light/12-h dark cycle (lights on at 7:00 AM). Their diet consisted of 2050 Teklad (Harlan Laboratories, Indianapolis, Ind.) and fresh fruit or vegetable. Water was freely available. All animals were observed daily by a veterinary technician and caretakers for signs of ill health. Subjects were repeatedly used with >13-day resting period. Monkeys were anesthetized with an intramuscular injection of either Telazol (3-5 mg/kg) or ketamine (10-20 mg/kg) followed by intravenous constant rate infusion with ketamine (0.2-0,8 mg/kg/min) using a syringe pump (552222, Harvard Apparatus, Holliston, Mass.). Animals were placed in a supine position and a triple lumen balloon transurethral catheter (7.4 Fr, Cook Medical, Bloomington, Ind.) was inserted into the bladder and the balloon was inflated with 1 mL of water to secure the tip of catheter at the bladder base. The catheter was connected with an infusion pump (Gemini PC-2TX, ALARIS Medical Systems, San Diego, Calif.) for bladder filling and a pressure transducer for intravesical pressure monitoring. Intravesical pressure was continuously recorded using a multiple channel data acquisition system (Power lab, AD Instruments, Biopac systems, Colorado Springs, Colo.) at a sampling rate of 20 Hz. After confirming bladder emptiness by an ultrasonography (Logiq e vet, GE Medical Systems, Waukesha, Wis., FIG. 1A), saline was intravesically infused at 15 mL/min. When the steep rise in pressure indicative of the micturition reflex was observed, intravesical infusion was stopped and the bladder was manually emptied with a 60 ml syringe.
After two baseline cystometry readings, drug was intravenously administered three times using a rising dose paradigm with a cystometry performed 10 min after each dose. Bladder capacity was measured for each cystometry and % change from the baseline capacity was calculated. As used herein, the term “baseline capacity” or “baseline” means the average bladder capacity from two pre-dose measurements.
The reported results are mean values of % change from baseline in 4-6 animals.

muscarinic receptor M4 = biological target: T2, muscarinic receptor M4 (Homo sapiens, UniProt P08173); conditions: Ohtake et al.; cited from earlier work
T2 sequence (P08173 1-479): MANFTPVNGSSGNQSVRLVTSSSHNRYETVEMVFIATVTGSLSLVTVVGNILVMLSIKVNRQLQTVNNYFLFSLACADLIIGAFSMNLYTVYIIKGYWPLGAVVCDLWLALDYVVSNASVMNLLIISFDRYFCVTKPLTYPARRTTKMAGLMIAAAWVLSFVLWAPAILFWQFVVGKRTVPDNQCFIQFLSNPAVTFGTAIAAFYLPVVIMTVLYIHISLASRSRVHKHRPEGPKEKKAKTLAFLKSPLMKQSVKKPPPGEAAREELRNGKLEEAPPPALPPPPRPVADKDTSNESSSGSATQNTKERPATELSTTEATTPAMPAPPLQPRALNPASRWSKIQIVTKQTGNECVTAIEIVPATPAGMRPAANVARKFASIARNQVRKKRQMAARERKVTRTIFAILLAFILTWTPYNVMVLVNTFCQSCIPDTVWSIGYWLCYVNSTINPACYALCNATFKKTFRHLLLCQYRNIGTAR

[3] = human β3 functional activity, read-out: HUMAN β3 BINDING
[4] = cAMP, CHO cells, read-out: human β3 functional activity

T1 sequence (P13945 whole entry): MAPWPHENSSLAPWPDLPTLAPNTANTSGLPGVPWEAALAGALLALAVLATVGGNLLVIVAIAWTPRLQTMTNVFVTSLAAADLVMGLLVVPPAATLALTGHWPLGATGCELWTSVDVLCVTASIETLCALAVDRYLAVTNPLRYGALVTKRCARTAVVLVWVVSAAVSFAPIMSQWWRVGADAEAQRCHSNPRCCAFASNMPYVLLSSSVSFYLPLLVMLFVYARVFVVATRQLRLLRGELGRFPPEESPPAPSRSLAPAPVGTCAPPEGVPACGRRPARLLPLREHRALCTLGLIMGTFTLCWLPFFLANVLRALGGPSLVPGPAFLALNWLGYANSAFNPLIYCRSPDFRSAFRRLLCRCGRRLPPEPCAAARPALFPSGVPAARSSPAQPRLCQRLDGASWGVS

| EC50 [1, 3] [nM] | EC50 [1, 4] [nM] | Compound | further results |
| --- | --- | --- | --- |
| 1 to 10 | – | O=C(Cn1cnc2ccccc2c1=O)Nc1ccc(C[C@@H]2CC[C@H]([C@H](O)c3ccccc3)N2)cc1 [Compound 4] | – |
| 1 to 10 | – | O=C(Cn1cnccc1=O)Nc1ccc(C[C@@H]2CC[C@H]([C@H](O)c3ccccc3)N2)cc1 [Compound 9] | – |
| – | 1 to 10 | Cc1ncn(C(C)C(=O)Nc2ccc(C[C@@H]3CC[C@H]([C@H](O)c4ccccc4)N3)cc2)n1 (stereo partly drawn) [Compound 11] | – |
| 1 to 10 | – | O=C(Cn1ncccc1=O)Nc1ccc(C[C@@H]2CC[C@H]([C@H](O)c3ccccc3)N2)cc1 [Compound 5] | – |
| – | 1 to 10 | O=C(Nc1ccc(C[C@@H]2CC[C@H]([C@H](O)c3ccccc3)N2)cc1)[C@@H]1CCc2cccc(=O)n21 [Compound 12, (3S)-N-[4-({(2S,5R)-5-[(R)-hydroxy(phenyl)methyl]pyrrolidin-2-yl}methyl)phenyl]-5-oxo-1,2,3,5-tetrahydroindolizine-3-carboxamide] | times less potent than CL316243 (IC25) ([2]; inhibiting EFS-induced contraction of rat bladder strips): ~100 times; IC25 (concentration which induced 25% inhibition of detrusor contraction) ([2]; single compound, rat bladder strips, EFS): 275 nM |
| – | 11 to 100 | O=C(Nc1ccc(C[C@@H]2CC[C@H]([C@H](O)c3ccccc3)N2)cc1)[C@@H]1CCc2nccc(=O)n21 [Compound 14, (6S)-N-[4-({(2S, 5R)-5-[(R)-hydroxy(phenyl)methyl]pyrrolidin-2-yl}methyl)phenyl]-4-oxo-4,6,7,8-tetrahydropyrrolo[1,2-α]pyrimidine-6-carboxamide] | Bladder capacity, % change from baseline (bladder capacity; mono-therapy 0.003 mg/kg iv): 4.1%; Bladder capacity, % change from baseline (bladder capacity; mono-therapy 0.003 mg/kg iv, listed as Cpd 14): 4.1%; Bladder capacity, % change from baseline (bladder capacity; mono-therapy 0.01 mg/kg iv): 18.0%; Bladder capacity, % change from baseline (bladder capacity; mono-therapy 0.03 mg/kg iv): 27.3%; Bladder capacity, % change from baseline (bladder capacity; mono-therapy 0.1 mg/kg iv): 33.9%; Bladder capacity, % change from baseline (bladder capacity; mono-therapy 0.3 mg/kg iv): 31%; Bladder capacity, % change from baseline (bladder capacity; mono-therapy 1 mg/kg iv): 55.9% |
| – | < 1 | O=C(Nc1ccc(C[C@@H]2CC[C@H]([C@H](O)c3ccccc3)N2)cc1)[C@H]1CCc2cccc(=O)n21 [Compound 13, (3R)-N-[4-({(2S,5R)-5-[(R)-hydroxy(phenyl)methyl]pyrrolidin-2-yl}methyl)phenyl]-5-oxo-1,2,3,5-tetrahydroindolizine-3-carboxamide] | – |
| 1 to 10 | – | O=C(Cn1ccccc1=O)Nc1ccc(C[C@@H]2CC[C@H]([C@H](O)c3ccccc3)N2)cc1 [Compound 10] | – |
| – | – | NC(=O)C(c1ccccc1)(c1ccccc1)[C@@H]1CCN(CCc2ccc3c(c2)CCO3)C1 [Darifenacin, (S)-2-[1-[2-(2,3-dihydrobenzofuran-5-yl)ethyl]pyrrolidin-3-yl]-2,2-diphenyl-acetamide] | Bladder capacity, % change from baseline (bladder capacity; mono-therapy 0.01 mg/kg iv): 8.9%; Bladder capacity, % change from baseline (bladder capacity; mono-therapy 0.03 mg/kg iv): 18.3%; Bladder capacity, % change from baseline (bladder capacity; mono-therapy 0.1 mg/kg iv): 29.4%; Ki (muscarinic receptor M4): 52 ± 15 nM |
| – | 1 to 10 | Nc1nc(CC(=O)Nc2ccc(C[C@@H]3CC[C@H]([C@H](O)c4ccccc4)N3)cc2)cs1 [Compound 2, 2-(2-Amino-1,3-thiazol-4-yl)-N-[4-({(2S, 5R)-[(R)-hydroxy(phenyl)methyl]pyrrolidinyl}methyl)phenyl]acetamide] | – |
| 1 to 10 | – | Cc1cnn(CC(=O)Nc2ccc(C[C@@H]3CC[C@H]([C@H](O)c4ccccc4)N3)cc2)c(=O)c1 [Compound 6] | – |
| – | 1 to 10 | Nc1nc(CC(=O)Nc2ccc(CC3CC[C@H]([C@H](O)c4ccccc4)N3)cc2)cs1 (stereo partly drawn) [Compound 1, 2-(2-Amino-1,3-thiazol-4-yl)-N-[4-({(5R)-[(R)-hydroxy(phenyl)methyl]pyrrolidinyl}methyl)phenyl]acetamide] | – |
| – | < 1 | Nc1nc2c(s1)CCC2C(=O)Nc1ccc(C[C@@H]2CC[C@H]([C@H](O)c3ccccc3)N2)cc1 (stereo partly drawn) [Compound 3] | – |
| 1 to 10 | – | O=C(Cn1cccnc1=O)Nc1ccc(C[C@@H]2CC[C@H]([C@H](O)c3ccccc3)N2)cc1 [Compound 8] | – |
| 1 to 10 | – | O=C(Cn1ncc2ccccc2c1=O)Nc1ccc(C[C@@H]2CC[C@H]([C@H](O)c3ccccc3)N2)cc1 [Compound 7] | – |
